In data set [1] the test system is Herpes simplex type 1 virus (HFEM strain). Put plainly: Plaque reduction assay in virus-infected Vero cells (agarose overlay, 4 days). Type of data set: cell-based. The note with it: Human alphaherpesvirus 1, 96 h, concentration causing a 50% reduction in the number of virus plaques, 4 days incubation, read-out: PDD50 (the source's name). On the procedure: (§1) Vero (African Green Monkey Kidney) cells were grown to confluence in 24 well multidishes, each well being 1.6 cm in diameter. The cells were infected with Herpes simplex type 1 virus (HFEM strain) and overlaid with 0.5 mL of 0.9% agarose (w/v) in maintenance medium. Test compounds prepared in maintenance medium in concentrations ranging from […] in half-log dilution steps, were added in 0.5 mL volume. The virus infected cultures were then incubated at 37^0CC for 4 days before fixing in 4% formaldehyde solution and staining with carbolfuchsin.

The nature of data set [2]: Cytotoxicity observed in the plaque reduction assay cultures. The note with it: african green monkey, vero cells; minimum concentration of test compound which caused cytotoxicity; virus-infected Vero cultures, 4 days; read-out: MTD. It counts as cell-based. On the procedure: as §1

The structures appear in SMILES notation. Read-outs that look alike come from different tables or passages of the source.

For the compound `O=C(OC[C@H]1O[C@@H](n2cc(/C=C/Br)c(=O)[nH]c2=O)C[C@@H]1O)OC[C@H]1O[C@@H](n2cc(/C=C/Br)c(=O)[nH]c2=O)C[C@@H]1O` [Example 1, bis-[5-(E-2-Bromovinyl)-2'-deoxyuridin-5'-yl] carbonate], the IC50 turned out to be 2.1 µM in data set [1] (molar units) and 1.5 µg/mL in data set [1]. In data set [2], the MCC at 96 h was determined as 100 µg/mL.
In the same order, the values of `CC(=O)O[C@H]1C[C@H](n2cc(/C=C/Br)c(=O)[nH]c2=O)O[C@@H]1COC(=O)OC[C@H]1O[C@@H](n2cc(/C=C/Br)c(=O)n(C(C)=O)c2=O)C[C@@H]1OC(C)=O` [Example 2, 3',3'-Q-3-Triacetyl-bis-[5-(E-2-bromovinyl)-2'-deoxyuridin-5'-yl] carbonate] are 15.1 µM, 12.4 µg/mL and 100 µg/mL.
In the same order, the values of `CC(=O)O[C@H]1C[C@H](n2cc(/C=C/Br)c(=O)[nH]c2=O)O[C@@H]1COC(=O)OC[C@H]1O[C@@H](n2cc(/C=C/Br)c(=O)[nH]c2=O)C[C@@H]1OC(C)=O` [Example 3, bis-[3'-O-Acetyl-5-(E-2-bromovinyl)-2'-deoxyuridin-5'-yl] carbonate] are 10.9 µM, 8.5 µg/mL and 100 µg/mL.
`O=C(O[C@H]1C[C@H](n2cc(/C=C/Br)c(=O)[nH]c2=O)O[C@@H]1CO)O[C@H]1C[C@H](n2cc(/C=C/Br)c(=O)[nH]c2=O)O[C@@H]1CO` [Example 4, bis-[5-(E-2-Bromovinyl)-2'-deoxyuridin-3'-yl] carbonate]: the IC50 in data set [1] (molar units) turned out to be 0.5 µM; in data set [1], 0.34 µg/mL. Further, the MCC at 96 h in data set [2] was found to be 100 µg/mL.
In the same order, the values of `O=C(n1c(=O)c(/C=C/Br)cn([C@H]2C[C@H](O)[C@@H](CO)O2)c1=O)n1c(=O)c(/C=C/Br)cn([C@H]2C[C@H](O)[C@@H](CO)O2)c1=O` [Example 5, 3,3-Carbonyl-bis-[5-(E-2-bromovinyl)-2'-deoxyuridine]] are 0.1 µM, 0.07 µg/mL and 100 µg/mL.
In the same order, the values of `O=C(CCC(=O)OC[C@H]1O[C@@H](n2cc(/C=C/Br)c(=O)[nH]c2=O)C[C@@H]1O)OC[C@H]1O[C@@H](n2cc(/C=C/Br)c(=O)[nH]c2=O)C[C@@H]1O` [Example 6, bis-[5-(E-2-Bromovinyl)-2'-deoxyuridin-5'-yl] succinate] are 6.4 µM, 4.8 µg/mL and 100 µg/mL.
For `O=C(CCCCCCCCC(=O)OC[C@H]1O[C@@H](n2cc(/C=C/Br)c(=O)[nH]c2=O)C[C@@H]1O)OC[C@H]1O[C@@H](n2cc(/C=C/Br)c(=O)[nH]c2=O)C[C@@H]1O` [Example 7, bis-[5-(E-2-Bromovinyl)-2'-deoxyuridin-5'-yl] sebacate], the values for the IC50 in data set [1] (molar units) and in data set [1] were 0.14 µM and 0.12 µg/mL, respectively. In addition, in data set [2], the MCC at 96 h was 100 µg/mL.
